Numbered stars: 1 amine (or outer) side, 2 acyl side, 3 side chain; on linkers, the order of the positions; unused ones are H or OH. Bridge positions count the residues as written; N and C are the ends. Square brackets hold non-standard residues; d marks the D form. Ends that are not written are not given here. Peptide text beside a SMILES is read from it. N(6-aminohexyl)Gly = O=C(CN(CCCCCCN[*:3])[*:1])[*:2]; CO = O=C([*:1])[*:2]; Nlys = NCCCCNCC(=O)O
Experiments:
[1] = system: THP-1 cells, TLR2 ligand Pam3CSK4; assay: hTNFα production by THP-1 macrophages stimulated with Pam3CSK4 (TLR2); format: cell-based, human; conditions: THP-1, inhibitors 3 hr before Pam3CSK4, 24 h, ELISA
Procedure: MyD88 function depends on dimerization through the TIR domain[37]. The RDVLPGT peptide corresponds to the region between the βB strand and the αB helix[18] […] We screened a library of backbone cyclized peptides to identify a metabolically stable derivative of the BB loop peptide that retains the binding and functional properties of the parent peptide. The library was designed using two non-natural building blocks as previously reported. […] Tryptophan was added to the N-terminal AGBU for quantification purposes (Fig. 1). […]
Figure 3 c(MyD 4-4) blocks TLR-mediated macrophage activation. (A) THP-1 cells were treated with inhibitors for 3 hr prior to activation with the TLR2 ligand Pam3CSK4 200 pg/ml for 24 h. hTNFα levels were determined by ELISA. […] (B,C) Luminescence levels from the NFκB-luc murine RAW264.7 cells. […] NFκB-luc RAW264.7 cells were treated with inhibitors for 24 hr and then cells were stimulated with Pam3CSK4 (10 ng/ml) (C) or LPS (50 ng/ml) (D) for 4 hr and luminescence levels were determined. […] Human (h) TNFα levels were determined by ELISA at 24 hr. (F,G) NFκB-luc RAW264.7 cells were treated with the indicated compounds for 24 hr and then stimulated with Pam3CSK4 (F) or LPS (G) for 4 hr after which luminescence was determined. […]
(§1) Cytokines were determined using human/mouse OptEIA sets (BD Biosciences, CA, USA) according to the manufacturer’s instructions.

RAW264.7 NFκB-luc cells = assay: Viability of NFκB-luc RAW264.7 cells; format: cell-based, mouse; conditions: 24 hr treatment
[2] = system: THP-1 cells, TLR4 ligand LPS; assay: hTNFα production by THP-1 macrophages stimulated with LPS (TLR4); format: cell-based, human; conditions: THP-1, compound 3 hr before LPS, 24 hr, ELISA
Procedure: Figure 3 c(MyD 4-4) blocks TLR-mediated macrophage activation. (A) THP-1 cells were treated with inhibitors for 3 hr prior to activation with the TLR2 ligand Pam3CSK4 200 pg/ml for 24 h. hTNFα levels were determined by ELISA. One representative experiment of three independent experiments is shown. Asterisks represent the significance between treated cells and untreated Pam3CSK4-stimulated control. Asterisks above a cross bar represent the comparison between treatment with c(MyD 4-4) and treatment with MyDI. (B,C) Luminescence levels from the NFκB-luc murine RAW264.7 cells. The different conditions were set according to preliminary assays of each cell line. NFκB-luc RAW264.7 cells were treated with inhibitors for 24 hr and then cells were stimulated with Pam3CSK4 (10 ng/ml) (C) or LPS (50 ng/ml) (D) for 4 hr and luminescence levels were determined. One representative experiment of three independent experiments is shown. […] Human (h) TNFα levels were determined by ELISA at 24 hr. (F,G) NFκB-luc RAW264.7 cells were treated with the indicated compounds for 24 hr and then stimulated with Pam3CSK4 (F) or LPS (G) for 4 hr after which luminescence was determined. […]
as §1

THP-1 macrophages = format: cell-based, human
Excerpt: MyD88 function depends on dimerization through the TIR domain[37]. The RDVLPGT peptide corresponds to the region between the βB strand and the αB helix[18] […] We screened a library of backbone cyclized peptides to identify a metabolically stable derivative of the BB loop peptide that retains the binding and functional properties of the parent peptide. The library was designed using two non-natural building blocks as previously reported. The method, called cycloscan, is based on the concept of screening focused backbone cyclic libraries with spatial diversity that maintain the original side chains of the active region in the protein (RDVLPGT), Backbone cyclization combines N-alkylation with cyclization. In the case of the MyD88 BB-loop decoy peptide RDVLPGT, the tertiary amide bond preceding proline served as one of the anchor sites and was therefore replaced by an N-Alkylated glycine building unit (AGBU) to allow backbone cyclization to the second AGBU at the N-terminus (Fig. 1). Tryptophan was added to the N-terminal AGBU for quantification purposes (Fig. 1). Following the above procedure 16 backbone cyclic peptides were prepared with various ring size and position of the urea bridge in the ring (Table S1). To screen the library, human THP-1 macrophages were pre-treated with the cyclic peptides and then stimulated with Pam3CSK4, a synthetic TLR2/1 lipopeptide agonist.

[3] = Peptide stability in brush border membrane vesicles (BBMVs); format: in vitro ADME; conditions: rat intestinal BBMVs in MES buffer 50 mM pH 7.4, 37 °C, HPLC-MS, triplicate
Procedure: The linear peptide and c(MyD 4-4) (10 µg/ml) were mixed with fresh plasma from male Wistar rats (Harlan, Israel) and incubated at 37 °C for 240 min. Triplicate samples were taken at time 0 and after 5, 30, 60, 120, 180 and 240 min. Rat brush border membrane vesicles (BBMV) were prepared by Ca^2+ precipitation from the combined duodenum, jejunum, and upper ileum of male rats as described[41],[42]. Briefly, intestines were washed with ice cold saline and separated from mucus. The intestinal mucosa was separated from the luminal surface and placed immediately into buffer containing […] KCl and 10 mM Tris–HCl (pH 7.5, 4 °C). The samples were then homogenated (Polytron PT 1200, Kinematica AG, Switzerland) and 10 mM CaCl2 was added. The homogenate was placed on a shaker for 30 min at 4 °C and then centrifuged 10,000 g for 10 min. The supernatant was separated and centrifuged at 48,000 g for 30 min and an additional two purification steps were undertaken by suspending the pellet in 300 mM mannitol and 10 mM Hepes/Tris (pH 7.5) and centrifuging at 24,000 g/h. […]
To determine the concentration of the compounds, experimental samples were diluted 1:1 with ice-cold acetonitrile and centrifuged (11000 RPM, 10 min). […] The amount of the compounds was determined using high performance liquid chromatography mass spectrometry (HPLC-MS) Waters 2695 Separation Module, equipped with Micromass ZQ detector. […]

[4] = Peptide stability in rat plasma; format: in vitro ADME; conditions: fresh plasma of male Wistar rats, 37 °C, HPLC-MS, triplicate; for stability in plasma: 10 µg/ml, up to 240 min
Procedure: The linear peptide and c(MyD 4-4) (10 µg/ml) were mixed with fresh plasma from male Wistar rats (Harlan, Israel) and incubated at 37 °C for 240 min. Triplicate samples were taken at time 0 and after 5, 30, 60, 120, 180 and 240 min. Rat brush border membrane vesicles (BBMV) were prepared by Ca^2+ precipitation from the combined duodenum, jejunum, and upper ileum of male rats as described[41],[42]. Briefly, intestines were washed with ice cold saline and separated from mucus. The intestinal mucosa was separated from the luminal surface and placed immediately into buffer containing […] KCl and 10 mM Tris–HCl (pH 7.5, 4 °C). The samples were then homogenated (Polytron PT 1200, Kinematica AG, Switzerland) and 10 mM CaCl2 was added. The homogenate was placed on a shaker for 30 min at 4 °C and then centrifuged 10,000 g for 10 min. The supernatant was separated and centrifuged at 48,000 g for 30 min and an additional two purification steps were undertaken by suspending the pellet in 300 mM mannitol and 10 mM Hepes/Tris (pH 7.5) and centrifuging at 24,000 g/h. The quality of the BBMV purification was tested using the brush border membrane enzyme markers gamma-glutamyl transpeptidase (GGT), leucine amino peptidase (LAP) and alkaline phosphatase (Sigma-Aldrich, St Louis, MO). Peptides were mixed with purified BBMVs in MES buffer (2-(N-morpholino)ethanesulfonic acid, 50 mM pH 7.4) and incubated at 37 °C for 120 min. Triplicate samples were taken at time 0 and after 15, 30, 45, 60, 90, and 120 min.
To determine the concentration of the compounds, experimental samples were diluted 1:1 with ice-cold acetonitrile and centrifuged (11000 RPM, 10 min). The supernatant was separated and evaporated (Vacuum Evaporation System, Labconco, Kansas City, MO). Samples were reconstituted with acetonitrile: water 70:30 and then centrifuged (11000 RPM, 10 min). The amount of the compounds was determined using high performance liquid chromatography mass spectrometry (HPLC-MS) Waters 2695 Separation Module, equipped with Micromass ZQ detector. The resulting solution (100 μl) was injected into the HPLC system. […]

[5] = target: T1, recombinant fusion protein SUMO-MyD88-TIR (human MyD88 TIR domain, aa 150-296, fused to SUMO) (human, UniProt Q99836 150-296); assay: ELISA; SUMO fusion protein attached to ELISA plate wells; biotinylated peptide added at several concentrations; conditions: both partners purified
T1 construct: MyD88, human, TIR domain residues 150-296; Cloned with BamH/XhoI into the pETM-11 SUMO3GFP fusion vector; also called recombinant MyD88 TIR domain; Recombinant MyD88 TIR protein; source: E. coli BL21 C43 (DE3), purified (HIS-select Nickel Magnetic agarose beads, eluted with 300 mM imidazole)
T1 sequence (Q99836 150-296): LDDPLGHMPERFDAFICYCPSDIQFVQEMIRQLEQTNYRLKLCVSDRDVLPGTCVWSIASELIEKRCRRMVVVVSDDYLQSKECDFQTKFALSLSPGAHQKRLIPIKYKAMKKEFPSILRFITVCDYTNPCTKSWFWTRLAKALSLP

[6] = target: T1, recombinant fusion protein …; assay: ELISA; competitive binding: SUMO-MyD88-TIR (8 µg/ml) attached to polystyrene plates at 4 °C overnight, blocked with 1% BSA in PBS; 125 µM Biotin-MyDI together with 10, 1, 0.1 or 0 µM competitor for 30 min; Streptavidin-HRP, absorbance at 450 nm; conditions: both partners purified

## NC(=O)[C@H]1CCS[C@@H]2C[C@]3(CCCN3C(=O)Cc3ccc(NC(=O)COc4ccc(Cl)cc4Cl)cc3)C(=O)N12 [ST2825]
[1]
  inhibition of hTNFα production: did not block
RAW264.7 NFκB-luc cells
  cytotoxicity: highly cytotoxic
[2]
  inhibition of hTNFα production: did not block

## CC(C)C[C@@H]1NC(=O)[C@H](C(C)C)NC(=O)[C@H](CC(=O)O)NC(=O)[C@H](CCCNC(=N)N)NC(=O)CN(C(=O)[C@@H](N)Cc2c[nH]c3ccccc23)CCCCCCNC(=O)NCCCCCCN(CC(=O)NCC(=O)N[C@H](C(N)=O)[C@@H](C)O)C1=O [c(MyD6x6)] (H-W[N(6-aminohexyl)Gly]RDVL[N(6-aminohexyl)Gly]GT-NH2; linker 2-7 via CO)
THP-1 macrophages
  cytotoxicity: without causing cytotoxicity

## CC(C)C[C@@H]1NC(=O)[C@H](C(C)C)NC(=O)[C@H](CC(=O)O)NC(=O)[C@H](CCCNC(=N)N)NC(=O)CN(C(=O)[C@@H](N)Cc2c[nH]c3ccccc23)CCCCNC(=O)NCCCCN(CC(=O)NCC(=O)N[C@H](C(N)=O)[C@@H](C)O)C1=O [c(MyD 4-4)] (H-W[Nlys]RDVL[Nlys]GT-NH2; linker 2-7 via CO)
[3]; male, intestinal brush border membrane vesicles (BBMVs), 2 h, mean, read-out: peptide recovered at end of incubation with BBMVs
  remaining at 2 h: ~80%
[4]
  stability in plasma: highly stable
[4]; rat, 240 minutes, mean, read-out: starting material detected after incubation in plasma
  remaining at 4 h, 10 µg/ml: > 90%
THP-1 macrophages
  cytotoxicity: without causing cytotoxicity

## RDVLPGT-NH2 [MyDI]
[3]; up to 120 min
  stability with BBMVs: rapidly degraded
[4]
  stability in plasma: rapidly degraded

B1: Biotinylated linear BB loop peptide RDVLPGT (Biotin-MyDI) (peptide)
peptide: RDVLPGT
modifications: also: biotinylated, position not given here
notes: MyD88 BB loop heptamer; also called Biotinylated RDVLPGT; source: bought: Bio Basic Inc
[5]
  binding result: binds

B2: MyD88 inhibitor peptide (MyDI, RDVLPGT), unlabeled linear BB loop peptide (peptide)
peptide: RDVLPGT-NH2
notes: MyD88 BB loop heptamer; also called non-biotinylated linear peptide; MyD88 BB-loop decoy peptide; source: synthetic peptide (Fmoc chemistry on Rink amide MBHA resin, HPLC purified)
[6]
  binding result: binds

Source: PMC6013495, “Development of a Novel Backbone Cyclic Peptide Inhibitor of the Innate Immune TLR/IL1R Signaling Protein MyD88” (Scientific Reports, 2018)
